Assay: RP, Waters ACQUITY UPLC BEH C18, 100 × 2.1 mm, 1.7 µm, 60 °C, 0.3 mL/min, estimated dead time 0.73 min; A: water + 0.01% formic acid; B: methanol + 0.01% formic acid; gradient (min/%B) 0/10 14/90 16/90
Conditions: stereoisomer not certain

CC(N)Cc1ccccc1 (stereo not given) and CNC(C)C(=O)c1ccccc1 (stereo not given) are within 1.5-fold of each other in LC retention time: 2.8 min for the first, 2.26 min for the second.

Going from CC(=O)OCC12CC(OC(=O)CC(C)C)C(C)=CC1OC1C(O)C(O)C2(C)C12CO2 (stereo not given) to CC1=CC2OC3C(O)CC(C)(C34CO4)C2(CO)C(O)C1=O (stereo not given), the LC retention time falls from 9.07 min to 2.83 min (3.2-fold).

CCNC(C)Cc1ccc2c(c1)OCO2 (stereo not given) and CNC(C)Cc1ccc2c(c1)OCO2 (stereo not given) are within 1.5-fold of each other in LC retention time: 3.48 min for the first, 3.02 min for the second.

CCCCC(=O)N(Cc1ccc(-c2ccccc2-c2nn[nH]n2)cc1)C(C(=O)O)C(C)C (stereo not given) and CCCCC1=NC2(CCCC2)C(=O)N1Cc1ccc(-c2ccccc2-c2nn[nH]n2)cc1 are within 1.5-fold of each other in LC retention time: 10.6 min for the first, 10.3 min for the second.

O=C(O)c1ccccc1O and O=C(c1ccc(O)cc1O)c1ccc(O)cc1O are within 1.5-fold of each other in LC retention time: 4.8 min for the first, 6.4 min for the second.

COP(=S)(OC)SCn1nnc2ccccc2c1=O and COc1nn(CSP(=S)(OC)OC)c(=O)s1 are within 1.5-fold of each other in LC retention time: 11.5 min for the first, 9.06 min for the second.

COc1cc2c(c3oc(=O)c4c(c13)CCOC4=O)C1CCOC1O2 (stereo not given) and COc1cc2c(c3oc(=O)c4c(c13)CCC4=O)C1C=COC1O2 (stereo not given) are within 1.5-fold of each other in LC retention time: 5.93 min for the first, 7.15 min for the second.

Going from CCn1cc(C(=O)O)c(=O)c2cc3c(cc21)OCO3 to CCCCCc1cc(O)c2c(c1)OC(C)(C)C1CCC(C(=O)O)=CC21 (stereo not given), the LC retention time rises from 5.67 min to 13.9 min (2.5-fold).

Going from CCC1OC(=O)C(C)C(OC2CC(C)(OC)C(O)C(C)O2)C(C)C(OC2OC(C)CC(N(C)C)C2O)C(C)(O)CC(C)CN(C)C(C)C(O)C1(C)O (stereo not given) to CCC1OC(=O)C(C)C(OC2CC(C)(OC)C(O)C(C)O2)C(C)C(OC2OC(C)CC(N(C)C)C2O)C(C)(OC)CC(C)C(=O)C(C)C(O)C1(C)O (stereo not given), the LC retention time rises from 6.2 min to 9.78 min (1.6-fold).

Going from CC(=O)O[Si](CCCC(O)COC(=O)c1ccc(O)cc1)(OC(C)=O)c1ccccc1 (stereo not given) to CCC(=C(CC)c1ccc(O)cc1)c1ccc(O)cc1, the LC retention time rises from 5.92 min to 10.3 min (1.7-fold).

First: COc1cc(Cc2cnc(N)nc2N)cc(OC)c1OC
Second: COc1ccc2nc(S(=O)Cc3ncc(C)c(OC)c3C)[nH]c2c1 (stereo not given)
The LC retention time of the first is 2.4-fold lower: 3.15 min for the first, 7.55 min for the second.

Going from Cc1cc(C)nc(NS(=O)(=O)c2ccc(N)cc2)n1 to Nc1ccc(S(=O)(=O)Nc2ncccn2)cc1, the LC retention time falls from 3.59 min to 2.09 min (1.7-fold).

CC(=O)OC1(C(C)=O)CCC2C3C=C(C)C4=CC(=O)CCC4(C)C3CCC21C (stereo not given) and C=C1CC2C3C=C(C)C4=CC(=O)CCC4(C)C3CCC2(C)C1(OC(C)=O)C(C)=O (stereo not given) are within 1.5-fold of each other in LC retention time: 11.5 min for the first, 11.8 min for the second.

CCOC(=O)C1C(OC(=O)c2ccccc2)CC2CCC1N2C (stereo not given) and COC(=O)C1C(OC(=O)c2ccccc2)CC2CCC1N2C (stereo not given) are within 1.5-fold of each other in LC retention time: 5.78 min for the first, 4.66 min for the second.

First: CCOP(=S)(OCC)Oc1ccc(=O)n(-c2ccccc2)n1
Second: Cc1c(N)c(=O)n(-c2ccccc2)n1C
The LC retention time of the first is 3.1-fold higher: 10.7 min for the first, 3.48 min for the second.

O=C1OCCN1N=Cc1ccc([N+](=O)[O-])o1 and Cc1nnc(N=S(=O)(O)c2ccc(N)cc2)s1 are within 1.5-fold of each other in LC retention time: 2.96 min for the first, 3.19 min for the second.

Going from CCN(CC)c1nc(C)cc(OP(=S)(OC)OC)n1 to Cc1nc(N(C)C)nc(OC(=O)N(C)C)c1C, the LC retention time falls from 12 min to 7.79 min (1.5-fold).

CNC(=O)Oc1cc(C)c(SC)c(C)c1 and CNC(=O)Oc1cccc2c1OC(C)(C)C2 are within 1.5-fold of each other in LC retention time: 9.95 min for the first, 7.48 min for the second.

CCOC(=O)C(CCc1ccccc1)NC(C)C(=O)N1CCCC1C(=O)O (stereo not given) and CC1(C)SC2C(NC(=O)Cc3ccccc3)C(=O)N2C1C(=O)O (stereo not given) are within 1.5-fold of each other in LC retention time: 7.47 min for the first, 7.08 min for the second.

CC12CCC3c4ccc(O)cc4CCC3C1CCC2=O (stereo not given) and CC12CCC3c4ccc(OS(=O)(=O)O)cc4CCC3C1CCC2=O (stereo not given) are within 1.5-fold of each other in LC retention time: 9.99 min for the first, 10.6 min for the second.

CCC(C)(C)C(=O)OC1CC(C)C=C2C=CC(C)C(CCC3CC(O)CC(=O)O3)C21 (stereo not given) and CCC1OC(=O)C(C)C(OC2CC(C)(OC)C(O)C(C)O2)C(C)C(OC2OC(C)CC(N(C)C)C2O)C(C)(O)CC(C)C(=NOCOCCOC)C(C)C(O)C1(C)O (stereo not given) are within 1.5-fold of each other in LC retention time: 14.2 min for the first, 9.99 min for the second.

NC(=O)N1c2ccccc2C=Cc2ccccc21 and COc1ccc2cc(C(C)C(=O)O)ccc2c1 (stereo not given) are within 1.5-fold of each other in LC retention time: 8.1 min for the first, 9.74 min for the second.

Compared with CC12CCC3c4ccc(OS(=O)(=O)O)cc4CCC3C1CCC2O (stereo not given), COC(=O)C1C2CCC(CC1OC(=O)c1ccccc1)N2 (stereo not given) is 2-fold lower in LC retention time: 10.4 min for the first, 5.14 min for the second.

Compared with CCCCC(C)C(OC(=O)CC(CC(=O)O)C(=O)O)C(CC(C)CC(O)CCCCC(O)CC(O)C(C)N)OC(=O)CC(CC(=O)O)C(=O)O (stereo not given), CCNc1nc(NCC)[nH]c(=O)n1 is 3.3-fold lower in LC retention time: 9.48 min for the first, 2.83 min for the second.

Going from CC1CCCC(=O)CCCC=Cc2cc(O)cc(O)c2C(=O)O1 (stereo not given) to COc1cc2c(c3oc(=O)c4c(c13)CCC4=O)C1(O)C=COC1O2 (stereo not given), the LC retention time falls from 10.3 min to 6.04 min (1.7-fold).

Source: the RepoRT retention time repository (doi:10.1016/j.chroma.2012.12.030)
